From patent publication US7807713B2, “Pan-antagonists for the androgen receptor and androgen associated with anti-androgen withdrawal” (University of Delaware, priority 2006, dated 2010)
Positions count from the first letter of the chain named. Where two headings read alike, the source gives them in different places.

Assays:
Format in all cases: cell-based
hAR(W741C) = biological target: T1, hAR(W741C) (Homo sapiens, UniProt P10275, W742C); test: Transcription assay (ARE-luciferase reporter, CV-1 cells), mutant androgen receptor W741C
T1 construct: expressed in transfected cells; host or cells: CV-1
T1 sequence (P10275 1-920 W742C): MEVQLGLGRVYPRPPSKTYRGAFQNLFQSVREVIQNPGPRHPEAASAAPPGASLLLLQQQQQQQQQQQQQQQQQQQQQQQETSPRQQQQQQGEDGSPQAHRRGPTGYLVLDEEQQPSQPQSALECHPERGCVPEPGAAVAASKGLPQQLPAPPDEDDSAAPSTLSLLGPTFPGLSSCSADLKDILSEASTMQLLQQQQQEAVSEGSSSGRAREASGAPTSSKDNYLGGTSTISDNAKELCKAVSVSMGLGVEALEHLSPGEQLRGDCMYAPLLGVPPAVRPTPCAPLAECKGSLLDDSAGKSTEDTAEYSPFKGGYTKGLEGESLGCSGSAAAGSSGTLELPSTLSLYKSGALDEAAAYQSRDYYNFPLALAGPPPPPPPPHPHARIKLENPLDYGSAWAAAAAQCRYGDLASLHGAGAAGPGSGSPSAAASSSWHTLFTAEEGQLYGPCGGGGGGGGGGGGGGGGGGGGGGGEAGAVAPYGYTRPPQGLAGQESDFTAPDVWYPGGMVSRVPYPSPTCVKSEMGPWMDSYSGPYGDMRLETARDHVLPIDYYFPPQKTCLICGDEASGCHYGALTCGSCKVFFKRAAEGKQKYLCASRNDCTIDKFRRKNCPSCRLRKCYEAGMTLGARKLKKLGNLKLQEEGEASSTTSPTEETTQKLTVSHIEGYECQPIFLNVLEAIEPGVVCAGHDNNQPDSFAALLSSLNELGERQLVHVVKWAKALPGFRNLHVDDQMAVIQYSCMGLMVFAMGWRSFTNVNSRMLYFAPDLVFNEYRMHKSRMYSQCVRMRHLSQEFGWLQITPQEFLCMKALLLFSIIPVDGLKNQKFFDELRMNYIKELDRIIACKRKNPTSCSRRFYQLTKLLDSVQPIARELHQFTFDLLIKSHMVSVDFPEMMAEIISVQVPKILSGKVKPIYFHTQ
Protocol: (§1) Twenty-four hours prior to transfection, CV-1 cells were seeded at a density of 45,000 cells per well in 24-well cell culture plates and grown in phenol red free Dulbecco's Modified Eagle Medium (DMEM) supplemented with 10% cosmic calf serum (CCS). ARE-luciferase reporter and Renilla-Luc as the internal standard and a […] expression vector encoding the wild-type androgen receptor or mutant androgen receptor were transfected with Lipofectamine (Invitrogen) following manufacturer's protocol. Five hours after transfection, media was added containing the appropriate concentrations of ligands. The cells were allowed to incubate for 38 hours before harvesting by passive lysis buffer. Cell extracts were immediately assayed using the Dual Luciferase Assay (Promega).

hAR(T877A) = biological target: T2, hAR(T877A) (Homo sapiens, UniProt P10275, T878A); test: Transcription assay (ARE-luciferase reporter, CV-1 cells), mutant androgen receptor T877A
T2 construct: expressed in transfected cells; host or cells: CV-1
T2 sequence (P10275 1-920 T878A): T1 sequence (P10275 1-920 W742C) with C742W, T878A
Protocol: as §1

hAR(wt) = biological target: T3, hAR(wt) (Homo sapiens, UniProt P10275); test: Transcription assay (ARE-luciferase reporter, CV-1 cells), wild-type androgen receptor
T3 construct: expressed in transfected cells; host or cells: CV-1
T3 sequence (P10275 1-920): T1 sequence (P10275 1-920 W742C) with C742W
Protocol: as §1

LNCaP cells = test: Cell proliferation assay (CyQuant), R1881 induced; settings: 8 day ligand treatment ± R1881, FIG. 9
Excerpt: FIG. 9. LNCaP cell proliferation (CyQuant) after 8 day ligand treatment±R1881. Relative Fluorescence±SEM. (R1881±ligand; P<0.05, one-way ANOVA).
Further evidence that formulae such as PLM1 can act to limit androgen dependent proliferation of prostate cells was obtained by cell proliferation assays as determined using CyQuant® assays, according to manufacturer's instructions (invitrogen).

In the case of “3-(2-phenylphenylsulfonyl)-N-(4-cyano-3-(trifluoromethyl)phenyl)-2-hydroxy-2-methylpropanamide [PLM4]”, the EC50 (hAR(W741C); half maximal activation of reporter gene expression (agonism), '—' = no effect, read-out: hAR(W741C) EC50) is reported as 33 ± 9.8 nM.

`CC(O)(CS(=O)(=O)c1ccccc1Cc1ccccc1O)C(=O)Nc1ccc(C#N)c(C(F)(F)F)c1` (stereo not drawn) [PAN11, N-(4-cyano-3-(trifluoromethyl)phenyl)-2-hydroxy-3-(2-(2-hydroxybenzyl)phenylsulfonyl)-2-methylpropanamide] showed an EC50 (hAR(T877A)) of 1.9 nM.

`CC(O)(CS(=O)(=O)c1ccccc1Cc1cccc(O)c1)C(=O)Nc1ccc(C#N)c(C(F)(F)F)c1` (stereo not drawn) [PAN21, N-(4-cyano-3-(trifluoromethyl)phenyl)-2-hydroxy-3-(2-(3-hydroxybenzyl)phenylsulfonyl)-2-methylpropanamide] showed an EC50 (hAR(wt)) of 1.8 nM.

For `CC(O)(CS(=O)(=O)c1cccc2ccccc12)C(=O)Nc1ccc(C#N)c(C(F)(F)F)c1` (stereo not drawn) [PLM1, N-(4-cyano-3-(trifluoromethyl)phenyl)-2-hydroxy-2-methyl-3-(naphthalen-1-ylsulfonyl)propanamide], the “inhibiting androgen (R1881) induced proliferation of LNCaP cells” value (LNCaP cells) was “at least as potent as biclutamide itself”.

`CC(O)(CS(=O)(=O)c1cccc(Cc2ccccc2)c1)C(=O)Nc1ccc(C#N)c(C(F)(F)F)c1` (stereo not drawn) [PLM3, 3-(3-benzylphenylsulfonyl)-N-(4-cyano-3-(trifluoromethyl)phenyl)-2-hydroxy-2-methylpropanamide] showed an EC50 (hAR(W741C)) of 630 ± 67 nM.

For `CC(O)(CS(=O)(=O)c1ccc(Br)c2ccccc12)C(=O)Nc1ccc(C#N)c(C(F)(F)F)c1` (stereo not drawn) [PLM9, 3-(1-bromonaphthalen-4-ylsulfonyl)-N-(4-cyano-3-(trifluoromethyl)phenyl)-2-hydroxy-2-methylpropanamide], the EC50 (hAR(T877A)) was 426 ± 72 nM.
